Experimental data reported in patent US20240270762A1, “PENICILLIN-BINDING PROTEIN INHIBITORS” (priority 2021, published 2024).
Converted amounts (≈) assume the structure as drawn.

Columns and labels:
[1] = target: T1, PBP3 from Acinetobacter baumannii (ATCC 19606) (Acinetobacter baumannii, UniProt A0ABX6CK25); test: Bocillin-FL fluorescence polarization competition binding, A. baumannii PBP3; conditions: fluorescence polarization competition binding assay using Bocillin-FL; read-out: A. baumannii PBP3 Potency
T1 sequence (A0ABX6CK25 64-610): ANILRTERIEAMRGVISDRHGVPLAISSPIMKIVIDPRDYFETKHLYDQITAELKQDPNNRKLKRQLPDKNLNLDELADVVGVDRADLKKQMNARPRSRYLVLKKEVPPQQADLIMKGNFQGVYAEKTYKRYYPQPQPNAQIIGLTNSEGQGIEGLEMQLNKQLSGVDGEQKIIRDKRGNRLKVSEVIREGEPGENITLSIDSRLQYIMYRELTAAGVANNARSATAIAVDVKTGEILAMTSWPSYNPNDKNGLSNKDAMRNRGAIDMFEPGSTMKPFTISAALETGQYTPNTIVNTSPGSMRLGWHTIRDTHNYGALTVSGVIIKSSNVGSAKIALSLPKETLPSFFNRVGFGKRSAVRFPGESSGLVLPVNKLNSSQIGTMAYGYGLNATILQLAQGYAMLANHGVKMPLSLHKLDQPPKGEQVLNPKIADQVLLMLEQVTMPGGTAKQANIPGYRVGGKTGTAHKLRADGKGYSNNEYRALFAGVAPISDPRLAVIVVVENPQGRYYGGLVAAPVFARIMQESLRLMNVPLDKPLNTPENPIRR
How it was run: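 Purified PBPs pre-incubated with inhibitor (E. coli PBP3 1.5 μM, 30 min; P. aeruginosa PBP3 0.75 μM, A. baumannii PBP1a 1 μM and PBP3 0.2 μM, 15 min), then Bocillin-FL 0.1 μM (0.05 μM for PBP1a) added; FP read up to 60 min. EC50 = concentration halving bound Bocillin-FL.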

P. aeruginosa ATCC 27853 = test: microbe, parasite or virus in culture; type: cell-based; conditions: Pseudomonas aeruginosa, ATCC27853, read-out: Minimum inhibitory concentration, P. aeruginosa ATCC 27853
A. baumannii 1258916 = test: microbe, parasite or virus in culture; type: cell-based, Acinetobacter baumannii; conditions: Acinetobacter baumannii, 1258916, read-out: MIC, A. baumannii 1258916

O=C(O)c1c(F)ccc2c1OB(O)[C@@H](NC(=O)C(NC(=O)N1CCN(Cc3cc(F)c(O)c(O)c3Cl)C(=O)C1=O)c1ccc(P(=O)(O)O)cc1)C2 (stereo partly drawn) [Example 45, (3R)-3-(2-(4-(2-chloro-5-fluoro-3,4-dihydroxybenzyl)-2,3-dioxopiperazine-1-carboxamido)-2-(4-phosphonophenyl)acetamido)-7-fluoro-2-hydroxy-3,4-dihydro-2H-benzo[e][1,2]oxaborinine-8-carboxylic acid] was tested, and the IC50 [1] was < 10 µM, the MIC (P. aeruginosa ATCC 27853) was < 1 µg/mL and the MIC (A. baumannii 1258916) was < 1 µg/mL.
With O=C(O)c1cccc2c1OB(O)[C@@H](NC(=O)C(NC(=O)N1CCN(Cc3ccc(O)c(O)c3Cl)C(=O)C1=O)c1ccc(P(=O)(O)O)cc1)C2 (stereo partly drawn) [Example 24, (3R)-3-(2-(4-(2-chloro-3,4-dihydroxybenzyl)-2,3-dioxopiperazine-1-carboxamido)-2-(4-phosphonophenyl)acetamido)-2-hydroxy-3,4-dihydro-2H-benzo[e][1,2]oxaborinine-8-carboxylic acid] the IC50 [1] was < 10 µM, the MIC (P. aeruginosa ATCC 27853) was 2 to 4 µg/mL (≈ 2.79 to 5.58 µM) and the MIC (A. baumannii 1258916) was < 1 µg/mL.
O=C(O)c1c(F)ccc2c1OB(O)[C@@H](NC(=O)C(NC(=O)N1CCN(Cc3ccc(O)c(O)c3Cl)C(=O)C1=O)c1ccc(P(=O)(O)O)c(F)c1)C2 (stereo partly drawn) [Example 23, (3R)-3-(2-(4-(2-chloro-3,4-dihydroxybenzyl)-2,3-dioxopiperazine-1-carboxamido)-2-(3-fluoro-4-phosphonophenyl)acetamido)-7-fluoro-2-hydroxy-3,4-dihydro-2H-benzo[e][1,2]oxaborinine-8-carboxylic acid] was tested, and the IC50 [1] was < 10 µM, the MIC (P. aeruginosa ATCC 27853) was < 1 µg/mL and the MIC (A. baumannii 1258916) was < 1 µg/mL.
